This passage reports IC50 results from patent US12209075B2, “Pyridine-sulfonamide derivatives as sodium channel inhibitors” (GENENTECH, INC., priority 2018, dated 2025).

Molecules are shown by their SMILES. pIC50: −log10 of the molar value. Where a name gives a salt, the structure may show the parent alone.

The target of this assay is hNav1.7 (Homo sapiens (Human), UniProt Q15858). The experiment in a line: Tritiated compound binding to membranes from cells expressing hNav1.7 and the β1 subunit (Nav1.7 LBA EVO). The settings on record: competitive binding vs [3H]compound, membranes with hNav1.7 and β1 subunit. The method, then: Example 64a. Tritiated Compound Binding to Membranes Isolated from Cells that Heterologously Express hNav1.7 and the β1 Subunit
Sequence of hNav1.7 (Q15858 whole entry, looked up): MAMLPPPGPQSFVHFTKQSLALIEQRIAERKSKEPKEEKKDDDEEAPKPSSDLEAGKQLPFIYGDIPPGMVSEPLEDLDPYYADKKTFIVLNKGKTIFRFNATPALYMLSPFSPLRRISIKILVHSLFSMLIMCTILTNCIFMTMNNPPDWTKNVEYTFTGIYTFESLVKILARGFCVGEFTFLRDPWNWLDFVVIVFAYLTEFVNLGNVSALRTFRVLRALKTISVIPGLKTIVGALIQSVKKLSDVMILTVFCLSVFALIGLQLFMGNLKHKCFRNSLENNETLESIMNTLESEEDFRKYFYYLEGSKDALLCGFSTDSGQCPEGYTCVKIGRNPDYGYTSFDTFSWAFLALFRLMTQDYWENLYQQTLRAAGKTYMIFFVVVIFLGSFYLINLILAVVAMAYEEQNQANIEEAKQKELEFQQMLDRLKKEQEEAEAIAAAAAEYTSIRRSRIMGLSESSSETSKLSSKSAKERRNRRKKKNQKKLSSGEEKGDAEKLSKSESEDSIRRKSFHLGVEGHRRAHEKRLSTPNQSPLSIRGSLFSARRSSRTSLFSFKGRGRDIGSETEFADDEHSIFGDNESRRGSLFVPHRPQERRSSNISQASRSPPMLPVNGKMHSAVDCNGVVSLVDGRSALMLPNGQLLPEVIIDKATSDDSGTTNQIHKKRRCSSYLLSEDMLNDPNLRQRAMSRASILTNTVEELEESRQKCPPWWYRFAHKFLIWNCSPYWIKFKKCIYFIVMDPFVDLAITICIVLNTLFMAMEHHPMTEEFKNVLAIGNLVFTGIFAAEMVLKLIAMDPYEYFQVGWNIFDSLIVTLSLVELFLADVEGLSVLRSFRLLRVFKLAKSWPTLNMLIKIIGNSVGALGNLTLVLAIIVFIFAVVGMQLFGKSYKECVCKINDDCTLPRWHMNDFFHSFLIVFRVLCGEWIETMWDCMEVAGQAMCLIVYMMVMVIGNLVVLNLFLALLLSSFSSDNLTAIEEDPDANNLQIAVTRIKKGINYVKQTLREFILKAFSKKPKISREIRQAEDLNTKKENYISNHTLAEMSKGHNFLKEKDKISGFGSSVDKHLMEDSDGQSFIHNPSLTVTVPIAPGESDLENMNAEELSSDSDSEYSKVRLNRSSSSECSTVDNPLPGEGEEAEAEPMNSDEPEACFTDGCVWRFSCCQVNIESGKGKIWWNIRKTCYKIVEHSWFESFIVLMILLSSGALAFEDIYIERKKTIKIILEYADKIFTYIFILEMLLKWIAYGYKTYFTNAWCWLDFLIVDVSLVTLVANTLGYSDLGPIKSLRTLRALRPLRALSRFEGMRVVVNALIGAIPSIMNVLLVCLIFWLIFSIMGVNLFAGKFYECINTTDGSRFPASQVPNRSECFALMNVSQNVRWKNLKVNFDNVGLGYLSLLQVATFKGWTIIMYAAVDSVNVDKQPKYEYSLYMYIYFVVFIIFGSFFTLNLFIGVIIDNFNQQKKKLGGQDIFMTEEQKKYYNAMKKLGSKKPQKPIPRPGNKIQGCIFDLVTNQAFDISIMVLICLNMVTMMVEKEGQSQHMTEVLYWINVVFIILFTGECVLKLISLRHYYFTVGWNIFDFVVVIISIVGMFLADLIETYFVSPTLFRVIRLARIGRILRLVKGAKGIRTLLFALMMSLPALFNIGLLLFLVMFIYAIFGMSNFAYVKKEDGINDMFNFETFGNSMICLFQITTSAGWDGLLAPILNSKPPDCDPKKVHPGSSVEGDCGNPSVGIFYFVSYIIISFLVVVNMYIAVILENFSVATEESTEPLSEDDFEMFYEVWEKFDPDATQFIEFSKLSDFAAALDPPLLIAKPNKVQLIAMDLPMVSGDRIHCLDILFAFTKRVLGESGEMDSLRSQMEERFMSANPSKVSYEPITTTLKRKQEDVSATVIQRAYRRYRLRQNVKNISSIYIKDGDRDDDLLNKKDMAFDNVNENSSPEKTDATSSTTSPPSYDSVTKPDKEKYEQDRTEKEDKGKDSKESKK
Sequence of hNav1.7 (Q07699 whole entry partner, looked up): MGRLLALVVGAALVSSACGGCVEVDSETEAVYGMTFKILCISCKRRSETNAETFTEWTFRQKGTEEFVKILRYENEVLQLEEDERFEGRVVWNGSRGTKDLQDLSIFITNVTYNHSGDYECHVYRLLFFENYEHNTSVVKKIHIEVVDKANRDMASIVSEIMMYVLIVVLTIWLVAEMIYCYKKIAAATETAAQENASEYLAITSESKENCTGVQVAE
Preparation of membranes containing recombinantly expressed sodium channels: Frozen recombinant cell pellets are thawed on ice and diluted to 4 times the cell pellet weight with ice cold 50 mM Tris HCl, pH 7.4 buffer. The cell suspensions are homogenized on ice using a motorized glass dounce homogeniser. Homogenates are further diluted 8.4 times with ice cold 50 mM Tris HCl, pH 7.4 buffer and then centrifuged at 200×g at 4° C. for 15 minutes. The supernatants are collected and centrifuged at 10000×g at 4° C. for 50 min. The pellets are then re-suspended in 100 mM NaCl, 20 mM Tris HCl, pH 7.4 buffer containing 1% v/v protease inhibitors (Calbiochem) and re-homogenized on ice. The homogenized membranes are then processed through a syringe equipped with a 26 gauge needle. Protein concentrations arer determined by Bradford Assay and the membranes are stored at −80° C.
Radioligand Binding Studies: Saturation experiments. A competitive NaV1.7 inhibitor having a methyl group is tritiated. Three tritiums are incorporated in place of methyl hydrogens to generate [^3H]compound. Binding of this radioligand is performed in 5 mL borosilicate glass test tubes at room temperature. Binding is initiated by adding membranes to increasing concentrations of [^3H]compound in 100 mM NaCl, 20 mM Tris HCl, pH 7.4 buffer containing 0.01% w/v bovine serum albumin (BSA) for 18 h. Non-specific binding is determined in the presence of 1 μM unlabeled compound. After 18 h, the reactants are filtered through GF/C glass fiber filters presoaked in 0.5% w/v polyethylene imine. Filters are washed with 15 mL ice cold 100 mM NaCl, 20 mM Tris HCl, pH7.4 buffer containing 0.25% BSA to separate bound from free ligand. [^3H]compound bound to filters is quantified by liquid scintillation counting.
Competitive binding experiments: Binding reactions are performed in 96-well polypropylene plates at room temperature for 18 h. In 360 μL, membranes are incubated with 100 pM [^3H]compound and increasing concentrations of Test Compound. Non-specific binding is defined in the presence of 1 μM unlabeled compound. Reactions are transferred and filtered through 96-well glass fiber/C filter plates presoaked with 0.5% polyethylene imine. The filtered reactions are washed 5 times with 200 μL ice cold buffer containing 0.25% BSA. Bound radioactivity is determined by liquid scintillation counting.
Data Analysis: For saturation experiments, non-specific binding is subtracted from total binding to provide specific binding and these values are recalculated in terms of pmol ligand bound per mg protein. Saturation curves are constructed and dissociation constants are calculated using the single site ligand binding model: Beq=(Bmax*X)/(X+Kd), where Beq is the amount of ligand bound at equilibrium, Bmax is the maximum receptor density, Kd is the dissociation constant for the ligand, and X is the free ligand concentration. For competition studies percent inhibition is determined and IC50 values are calculated using a 4 parameter logistic model (% inhibition=(A+((B−A)/(1+((x/C)^D)))) using XLfit, where A and B are the maximal and minimum inhibition respectively, C is the IC50 concentration and D is the (Hill) slope.
Example 64b. Tritiated Compound Binding to Membranes Isolated from Cells that Heterologous Express hNav1.7 and the β1 Subunit
Preparation of membranes containing recombinantly expressed sodium channels: Following the procedure described in 31a, and making modifications as required to: centrifuge supernatants at 100000×g instead of 10000×g; re-suspend pellets in a buffer containing 0.01% BSA in addition to 100 mM NaCl, 20 mM Tris HCl, pH 7.4 buffer, and 1% v/v […]; and storing membranes at −80° C. in single use aliquots instead of pooled. […]
`CCc1cc(S(=O)(=O)Nc2ccncn2)cnc1O[C@H]1CC[C@H](c2cccc(C(F)(F)F)c2)C[C@@H]1N(C)C` [Example 24, 6-(((1S,2S,4S)-2-(Dimethylamino)-4-(3-(trifluoromethyl)phenyl)cyclohexyl)oxy)-5-ethyl-N-(pyrimidin-4-yl)pyridine-3-sulfonamide formate] showed a pIC50 of 7.18.
`CN(C)[C@H]1C[C@@H](c2cccc(OC(F)(F)F)c2)CC[C@@H]1Oc1ccc(S(=O)(=O)Nc2ccncn2)cn1` [Example 25, 6-(((1S,2S,4S)-2-(dimethylamino)-4-(3-(trifluoromethoxy)phenyl)cyclohexyl)oxy)-N-(pyrimidin-4-yl)pyridine-3-sulfonamide formate] gave a pIC50 of 7.35.
As to `O=S(=O)(Nc1ccncn1)c1ccc(O[C@H]2CC[C@H](c3cccc(C(F)(F)F)c3)C[C@@H]2N2CCCCC2)nc1` [Example 26, 6-(((1S,2S,4S)-2-(piperidin-1-yl)-4-(3-(trifluoromethyl)phenyl)cyclohexyl)oxy)-N-(pyrimidin-4-yl)pyridine-3-sulfonamide], the pIC50 is 8.31. This pIC50 is 0.96 log units higher than that of the molecule before.
As for `Cc1nc(O[C@H]2CC[C@H](c3cccc(OC(F)(F)F)c3)C[C@@H]2N(C)C)ccc1S(=O)(=O)Nc1ccncn1` [Example 28, 6-(((1S,2S,4S)-2-(Dimethylamino)-4-(3-(trifluoromethoxy)phenyl)cyclohexyl)oxy)-2-methyl-N-(pyrimidin-4-yl)pyridine-3-sulfonamide], the figure is 8.39; as for `Cc1nc(O[C@H]2CC[C@H](c3cccc(C(F)(F)F)c3)C[C@@H]2N2CCCC2)ccc1S(=O)(=O)Nc1ccncn1` [Example 29, 2-Methyl-N-(pyrimidin-4-yl)-6-(((1S,2S,4S)-2-(pyrrolidin-1-yl)-4-(3-(trifluoromethyl)phenyl)-cyclohexyl)oxy)pyridine-3-sulfonamide], 7.17.
As for `Cc1nc(O[C@H]2CC[C@H](c3cccc(OC(F)(F)F)c3)C[C@@H]2N2CCCC2)ccc1S(=O)(=O)Nc1ccncn1` [Example 30, 2-Methyl-N-(pyrimidin-4-yl)-6-(((1S,2S,4S)-2-(pyrrolidin-1-yl)-4-(3-(trifluoromethoxy)phenyl)-cyclohexyl)oxy)pyridine-3-sulfonamide], the pIC50 is 7.78.
`CN(C)[C@H]1C[C@@H](c2cccc(C(F)(F)F)c2)CC[C@@H]1Oc1cc(Cl)c(S(=O)(=O)Nc2ccncn2)cn1` [Example 31, 4-Chloro-6-(((1S,2S,4S)-2-(dimethylamino)-4-(3-(trifluoromethyl)phenyl)cyclohexyl)oxy)-N-(pyrimidin-4-yl)pyridine-3-sulfonamide] gave a pIC50 of 8.72.
In turn, `Cc1cc(O[C@H]2CC[C@H](c3cccc(C(F)(F)F)c3)C[C@@H]2N(C)C)ncc1S(=O)(=O)Nc1ccncn1` [Example 32, 6-(((1S,2S,4S)-2-(Dimethylamino)-4-(3-(trifluoromethyl)phenyl)cyclohexyl)oxy)-4-methyl-N-(pyrimidin-4-yl)pyridine-3-sulfonamide] gave a pIC50 of 8.68.
For the molecule `CCc1nc(O[C@H]2CC[C@H](c3cccc(C(F)(F)F)c3)C[C@@H]2N(C)C)ccc1S(=O)(=O)Nc1ccncn1` [Example 33, 6-(((1S,2S,4S)-2-(Dimethylamino)-4-(3-(trifluoromethyl)phenyl)cyclohexyl)oxy)-2-ethyl-N-(pyrimidin-4-yl)pyridine-3-sulfonamide], the pIC50 was 8.81. The pIC50 values of the last two molecules are within 0.2 log units of each other.
Regarding `CN(C)[C@H]1C[C@@H](c2cccc(C(F)(F)F)c2)CC[C@@H]1Oc1ccc(S(=O)(=O)Nc2ccncn2)c(C2CC2)n1` [Example 34, 2-Cyclopropyl-6-(((1S,2S,4S)-2-(dimethylamino)-4-(3-(trifluoromethyl)phenyl)-cyclohexyl)oxy)-N-(pyrimidin-4-yl)pyridine-3-sulfonamide], the pIC50 is 8.94. The pIC50 values of the last two molecules are within 0.2 log units of each other.
As for `Cc1nc(O[C@H]2CC[C@H](c3cccc(C(F)(F)F)c3)C[C@@H]2N(C)C2CCC2)ccc1S(=O)(=O)Nc1ccncn1` [Example 35, 6-(((1S,2S,4S)-2-(Cyclobutyl(methyl)amino)-4-(3-(trifluoromethyl)phenyl)cyclohexyl)oxy)-2-methyl-N-(pyrimidin-4-yl)pyridine-3-sulfonamide], the figure is 8.95.

As a reminder, the pIC50 is the negative decadic logarithm of the IC50, by convention in mol/L. A higher pIC50 goes with a small IC50.
